Laboratory results published in patent US10406185B2, “Cancer therapy with a parvovirus combined with a BCL-2 inhibitor” (DEUTSCHES KREBSFORSCHUNGSZENTRUM, priority 2013, dated 2019).

Assays:
U138 = experiment: LDH assay (cell lysis), U138; format: cell-based, human; conditions: U138, H-1PV at MOI 5, 0.5 μM inhibitor, 72 h
Experimental: 72 hours after infection, percentage of cells undergoing lysis was measured by LDH assay.

[1] = tested on: human hematologic tumour xenograft; conditions: several human hematologic tumour xenograft models; cited from earlier work
human platelets = conditions: in contrast to ABT-737; cited from earlier work
U87 = experiment: LDH assay (cell lysis), U87; format: cell-based, human; conditions: U87, ABT-737 alone 5 μM, 72 h
Experimental: (§1) LDH assays. […] 72 hours after infection, cell lysis was analyzed by LDH assay as described in the materials and methods section. Columns represent the mean values from 3 replicates with relative standard deviation bars.
(§2) H-1PV cytotoxicity was evaluated by quantification of the enzyme lactate dehydrogenase (LDH), which is released from cells due to loss of membrane integrity (lysis). The assay was performed using the CytoTox 96® Non-Radioactive Cytotoxicity Assay Kit according to the manufacturer's instructions (Promega, Heidelberg, Germany).
(§3) Cells were seeded into 96-well plates usually at the density of 4,000 cells/well in 50 μl of their respective culture media supplemented with 10% FBS. […]
(§4) Briefly, 10 μl of 10× lysis buffer [9% (v/v) Triton X-100 (AppliChem, Darmstadt, Germany) in phosphate buffered saline (PBS)] were added per well in three lines of the plate, which served as 100% cell lysis control. […] The absorbance was measured at a wavelength of 492 nm using the Multiscan ELISA Reader. […] For each condition we calculated the average of the three wells incubated (A) or not (B) with lysis buffer. The average value measured in the wells without cells (background) was subtracted from the values obtained in the wells with the cells.

human glioma cell lines [2] = experiment: Sub-G1 apoptotic population by flow cytometry, eight glioma cell lines; format: cell-based; conditions: H-1PV MOI 0.5-7.5 or 0.25-5 μM ABT-737 alone, 48-96 h
Experimental: The occurrence of DNA fragmentation (sub-G1 cell population) in response to treatment was assessed by propidium iodide staining and flow cytometry in eight human glioma cell lines (a-h). […] Representative histogram plots are shown in the upper panel. […] Columns represent the mean values with relative standard deviation bars (lower panel).
Propidium iodide staining was performed, in order to detect apoptotic cells after treatment. The dye intercalates in the DNA, where it can be measured by flow cytometry. The fluorescence emission is proportional to the DNA content in the cells. Apoptotic cells are characterized by nuclear DNA fragmentation and can be identified by lower fluorescence emission (sub-G1 apoptotic cell population) (Riccardi & Nicoletti, 2006). […]
After 48 (U251, U138, A172, U87, NCH125), 72 (U373) or 96 (U343, NCH37) hours, from infection, supernatant and cells (harvested by trypsinization) were collected and washed with PBS. […] The cell suspension was filtered in a nylon net, and measured on a FACSCalibur (BD Biosciences, San Jose, Calif.). A minimum of 20,000 events were acquired and analyzed with the CellQuest Software (BD Biosciences). Propidium iodide was detected in the FL-2 channel. Untreated cells were used to set the gate for the apoptotic cell fraction, as they show the fluorescence emission of viable non-apoptotic cells. […]

[3] = tested on: U373, U138, U343 and NCH125 glioma cell lines; experiment: Mitochondrial membrane permeabilization (MitoTracker Red), four glioma cell lines; format: cell-based, human; conditions: ABT-737 0.5-1 μM or H-1PV MOI 2.5-7.5 alone, 48-96 h
Experimental: 48-96 hours after infection, cells were stained with Mitotracker Red, harvested and analyzed by flow cytometry. The percentage of cells with MMP, was determined using the CellQuest Software. In the upper panel representative histogram plots are shown for each condition. In the lower panel the results of a typical experiment performed in triplicates are shown. Columns represent the mean values with relative standard deviation bars.
The fluorescent dye MitoTracker® Red CMXRos (Molecular Probes, Invitrogen, Darmstadt, Germany) that stains mitochondria in live cells was used to measure the change in MMP. Due to the formation of pores in the mitochondrial membrane, apoptotic cells cannot retain the dye and show a lower fluorescent signal in flow cytometry analysis.
Glioma cells were seeded in 6-well plates at the density of 2.5×10^5 cells/well in 3 ml of cultural medium with the exception of NCH125 cells that were seeded at the density of 6.25×10^4 cells/well. […] Cell suspension was analyzed with a FACSCalibur (BD Biosciences). At least 10,000 events were acquired and analyzed with the CellQuest Software (BD Biosciences). The average of cells undergoing MMP was calculated from three replicates.

AsPC-1 xenografts = conditions: nude rats, treated animals
Experimental: 5×10^6 AsPC-1 cells were subcutaneously injected in the right flank of 5 week-old female nude rats. After 1 week (when tumour reached the volume of 200-400 mm^3), tumour-bearing animals were randomized in to four groups (n=8). […] Tumour volume was measured with a digital calliper on the days indicated and calculated according to the formula: volume […]=width^2× length/2. Rats were sacrificed when the tumour mass reached 4000 mm^3, in keeping with animal welfare regulations. Data shown represents the average values with standard deviation bars.

human glioma cell lines [4] = conditions: ABT-737 alone at the dosages of Table 1, 72 h, all glioma lines except U87
Experimental: as §1, §2, §3, §4

[5] = tested on: peripheral blood mononuclear cells (PBMCs); conditions: non malignant PBMCs; read-out: half maximal effective concentration (EC50); cited from earlier work
[6] = tested on: small-cell lung carcinoma; conditions: small-cell lung carcinoma xenograft mouse models; cited from earlier work

| Compound | increase of H-1PV cytotoxicity in comparison to virus alone (U138) [fold] | tumor growth [1] | effect on human platelets (human platelets) | cytotoxicity of ABT-737 alone (U87) | induction of apoptosis (sub-G1 population), single treatments (human glioma cell lines [2]) | effect on MMP, single treatments [3] | loss of weight or other adverse side effects (AsPC-1 xenografts) | cytotoxicity of ABT-737 alone (human glioma cell lines [4]) | EC50 [5] [µM] | tumour regression [6] |
| --- | --- | --- | --- | --- | --- | --- | --- | --- | --- | --- |
| CC1(C)CCC(CN2CCN(c3ccc(C(=O)NS(=O)(=O)c4ccc(NCC5CCOCC5)c([N+](=O)[O-])c4)c(Oc4cnc5[nH]ccc5c4)c3)CC2)=C(c2ccc(Cl)cc2)C1 [ABT-199] | 1.7 | inhibit tumor growth | spares human platelets | – | – | – | – | – | – | – |
| CN(C)CC[C@H](CSc1ccccc1)Nc1ccc(S(=O)(=O)NC(=O)c2ccc(N3CCN(Cc4ccccc4-c4ccc(Cl)cc4)CC3)cc2)cc1[N+](=O)[O-] [ABT-737] | 3.8 | – | – | modestcytotoxic effects | unable to induce apoptosis efficiently | almost no effect on the MMP | No loss of weight or other adverse side effects | no apparent cytotoxicity | > 1 | complete regression |
